Source: PMC11481179, “Development and Application of Reversible and Irreversible Covalent Probes for Human and Mouse Cathepsin‐K Activity Detection, Revealing Nuclear Activity” (Advanced Science, 2024)

Test system: primary human osteoclasts (enriched monocytic cells)
Experiment: Cell viability assay (methylene blue)
Assay type: cell-based
Conditions: 48 h incubation
Method: Figure 5 Labeling of endogenous cathepsin K in intact human osteoclast cells. Enriched human monocytes from PBMC were isolated from healthy donors’ blood, cells were treated with MCSF and RANKL or MCSF alone as indicated for 14 days. a–c) Osteoclasts were treated with vehicle (DMSO) or inhibitors ODN or GD30 [3 µM] in a culture medium for 2 h, followed by incubation with GD32 or GD42 for 8 h or GB123 for 2 h similar to as described in Figure 4. (a, b) Confocal fluorescent microscopy of GD32 and GB123 treated cells after fixation. c) Live cell imaging with GD42. d) SDS PAGE of the human osteoclasts and macrophages incubated with DMSO, ODN or GD30 [5 µM] followed by incubation with GD32 or GD42 [5 µM] for 8 h. e) The same gel was analyzed by western blot with an anti‐CTSK antibody. […] Red fluorescence marks cathepsin activity (ABPs) and blue fluorescence marks nucleus (DAPI). g–i) Cell viability assay. […] After 48 h incubation cells were fixed, and viability was measured by methylene blue. The data were expressed as a percentage of control; data represent the mean of two experiments with triplicates for each treatment (± Standard Deviation). […]
with 5µM GD32 for 24 h prior to the cell lysis. Cell lysates were prepared and analyzed as […]
analyzed as previously described. […]
After 48 h cells were fixed, and viability was measured by quantitative colorimetric assay using […]

For `C#CCNC(=O)[C@H](CC(C)C)N[C@@H](c1ccc(-c2ccc(S(=O)(=O)CCNC(=O)OC(C)(C)C)cc2)cc1)C(F)(F)F` [GD30], the cytotoxicity was “No toxicity”.

With `C#CCNC(=O)[C@H](CC(C)C)N[C@@H](c1ccc(-c2ccc(S(=O)(=O)CCNC(=O)CCCCC[N+]3=C(/C=C/C=C/C=C4/N(C)c5ccc(S(=O)(=O)O)cc5C4(C)C)C(C)(C)c4cc(S(=O)(=O)O)ccc43)cc2)cc1)C(F)(F)F` [GD32] the cytotoxicity was “No toxicity”.
